In patent US8343963B2, “Sulfamoyl-phenyl-ureido compounds and their use as medicament” (4SC AG, priority 2009, dated 2013):
Converted amounts (≈) assume the structure as drawn. Like-named read-outs stand apart in the source and are kept apart here.

Tests used:
[1] = system: multiresistant Dd2 strain of Plasmodium falciparum; assay: Antiplasmodial activity against Dd2 strain of Plasmodium falciparum ([8-3H]hypoxanthine incorporation); assay type: cell-based; conditions: 66 h, P. falciparum Dd2, 48 h + 18 h with [8-3H]hypoxanthine, 50% parasite growth inhibition, read-out: Antiplasmodia activity (IC50 class)
Protocol: For the determination of the antiplasmodial activity of the compounds described above, the multiresistant Dd2 strain of Plasmodium falciparum was used. The incorporation of [8-^3H]hypoxanthine into the parasitic nucleic acids was measured. The plasmodia were incubated at 0.3% parasitaemia and an erythrocyte haematocrit of 2.5% in the presence of different concentrations of the compounds in a final volume of 200 μl. The medium employed was RPMI 1640 which contained 10% of heat-treated human serum and 3 mg/l of gentamycin. In the incubations, the concentrations of the compounds varied from 0.001 to 100 μM. After 48 h, each batch was treated with 50 μl of [8-^3H]hypoxanthine (1 mCi/ml) and incubated for a further 18 h. The cells were filtered off, washed and suspended in 20 μl of scintillation fluid. The radioactive hypoxanthine absorbed by the parasites was then quantified using a scintillation counter. The results were presented graphically and the IC50 value was determined using a fitting function. The value IC50, the ‘inhibition constant’, indicates the value in μMol/l at which 50% parasite growth inhibition occurs (R. E. Desjardins, et al., Antimicrobiol. Agent Chemother. 16, pp. 710-718, 1979; J. D. Chulay, et al., Exp. Parasitol. 55, pp. 138-146, 1983).

[2] = In vitro clearance using human liver microsomes; assay type: in vitro ADME; conditions: human liver microsomes 0.5 mg/ml, 1 μM compound, 37° C., 0-30 min
Protocol: These experiments were performed at Nikem Research (Via Zambeletti 25; Baranzate, Milan, Italy). Test compounds in duplicate at the final concentration of 1 μM were dissolved in DMSO and pre-incubated for 10 min at 37° C. in phosphate buffer pH 7.4, 3 mM MgCl2, with human liver microsomes at the final concentration of 0.5 mg/ml. After the pre-incubation period, reaction was started by adding the cofactor mixture (NADP, Glc6P, G6P-DH); samples were taken at time 0, 5, 10, 15, 20 and 30 min and added to acetonitrile to quench the metabolic reaction, centrifuged and supernatant analysed and quantified by HPLC/MS. A control sample without cofactors was always added in order to check the chemical stability of test compounds. 7-ethoxycoumarin was added as reference standard. A fixed concentration of verapamil was added in every sample as internal standard for HPLC/MS. The concentration of the remaining compound at different times was determined by HPLC/MS. The rate constant, k (min^−1) derived for the exponential decay equation (peak area vs time) was used to calculate the rate of intrinsic clearance (Cli) of the compounds using the following equations: Cli (μl/min/mg compound)=k×V; where: V (μl/mg compound)=incubation volume/mg compound added. In table 3 the clearance (in vitro metabolic stability) classification was as follows: Cli<10=compound stable; Cli between 10 and 60=low metabolism; Cli between 60 and 600=medium metabolism Cli>600=high metabolism.

[3] = Solubility and solubility-range determination in 50 mM phosphate buffer at different pH; assay type: physicochemical; conditions: aqueous buffer, kinetic from dmso stock, 1% DMSO, 23° C., read-out: Solubility or solubility range
Protocol: The compounds were dissolved in DMSO at a concentration of 20 mg/ml. These stock solutions were further diluted 1:1 with DMSO (50 μl solution+50 μl DMSO) in seven steps. Subsequently, these solutions were diluted 1:100 (5 μl DMSO-stock+495 μl 50 mM phosphate buffer) in all four pH buffers (respectively: pH=4; pH=6; pH=7.4; pH=9) resulting in a final DMSO concentration of 1% in the buffers. These dilutions were vigorously mixed and transferred into 96-well reading plate. The plates were incubated in a shaker (600 rpm) at 23° C. for 24 hours. After that, the contents of the wells were mixed with a pipette and optical density (OD) was recorded at wavelengths of 550 nm; 600 nm; 650 nm and 700 nm in the Tecan Sunrise plate reader. The cut-off OD sum for an undissolved concentration of a compound was defined as follows: Cut off OD sum=mean blank OD+0.050 OD. For the determination of the solubility range, the following rule was applied: OD>cut off=>compound not dissolved at this concentration OD<cut-off=>compound dissolved at this concentration For the determination of the solubility, a titration curve (OD/concentration) was prepared and the concentrations were determined based on the measured OD of the mixture supernatant after centrifugation. The solubility values are given in μg/ml (table 3).

solubility at 24 h ([3]; pH 4, 50 mM phosphate buffer) | solubility at 24 h ([3]; pH 6, 50 mM phosphate buffer) | solubility at 24 h ([3]; pH 7.4, 50 mM phosphate buffer) | solubility at 24 h ([3]; pH 9, 50 mM phosphate buffer) | Compound | IC50 [1] | In vitro metabolism as determined from Cli [2]
– | – | – | – | CCCCN1CCN(C(=N)c2cccc(NC(=O)Nc3ccc(S(N)(=O)=O)cc3)c2)CC1 [Compound 1, 4-(3-(3-((4-butylpiperazin-1-yl)(imino)methyl)phenyl)ureido)benzenesulfonamide] | ≥ 1000 nM | low (Cli between 10 and 60=low metabolism)
– | – | – | – | CCCCN1CCN(C(=N)c2cccc(NC(=O)Nc3ccc(S(=O)(=O)Nc4ccc(S(N)(=O)=O)cc4)cc3)c2)CC1 [Compound 23, 4-(3-(3-((4-butylpiperazin-1-yl)(imino)methyl)phenyl)ureido)-N-(4-sulfamoylphenyl)benzenesulfonamide] | 210 to 990 nM | low (Cli between 10 and 60=low metabolism)
960 µg/mL (≈ 1530 µM) | 960 µg/mL (≈ 1530 µM) | 750 µg/mL (≈ 1190 µM) | 540 µg/mL (≈ 860 µM) | CCCCN1CCN(C(=N)c2cccc(NC(=O)Nc3ccc(S(=O)(=O)NCc4ccc(S(N)(=O)=O)cc4)cc3)c2)CC1 [Compound 34, 4-(3-(3-((4-butylpiperazin-1-yl)(imino)methyl)phenyl)ureido)-N-(4-sulfamoylbenzyl)benzenesulfonamide] | < 20 nM | medium (Cli between 60 and 600=medium metabolism)
– | – | – | – | CCN1CCN(C(=N)c2cccc(NC(=O)Nc3ccc(S(=O)(=O)NCc4ccc(S(N)(=O)=O)cc4)cc3)c2)CC1 [Compound 37, 4-(3-(3-((4-ethylpiperazin-1-yl)(imino)methyl)phenyl)ureido)-N-(4-sulfamoylbenzyl)benzenesulfonamide] | 20 to 200 nM | medium (Cli between 60 and 600=medium metabolism)
> 200 µg/mL | > 200 µg/mL | > 200 µg/mL | > 200 µg/mL | CCCN1CCN(C(=N)c2cccc(NC(=O)Nc3ccc(S(=O)(=O)NCc4ccc(S(N)(=O)=O)cc4)cc3)c2)CC1 [Compound 38, 4-(3-(3-(imino(4-propylpiperazin-1-yl)methyl)phenyl)ureido)-N-(4-sulfamoylbenzyl)benzenesulfonamide] | < 20 nM | medium (Cli between 60 and 600=medium metabolism)
– | – | – | – | CCCCN1CCN(C(=N)c2cccc(NC(=O)Nc3ccc(S(=O)(=O)N4Cc5ccc(S(N)(=O)=O)cc5C4)cc3)c2)CC1 [Compound 41, 2-(4-(3-(3-((4-butylpiperazin-1-yl)(imino)methyl)phenyl)ureido)phenylsulfonyl)isoindoline-5-sulfonamide] | 20 to 200 nM | medium (Cli between 60 and 600=medium metabolism)
– | – | – | – | N=C(c1cccc(NC(=O)Nc2ccc(S(=O)(=O)NCc3ccc(S(N)(=O)=O)cc3)cc2)c1)N1CCOCC1 [Compound 43, 4-(3-(3-(imino (morpholino)methyl)phenyl)ureido)-N-(4-sulfamoylbenzyl)benzenesulfonamide] | 20 to 200 nM | medium (Cli between 60 and 600=medium metabolism)
> 200 µg/mL | > 200 µg/mL | > 200 µg/mL | > 200 µg/mL | N=C(c1cccc(NC(=O)Nc2ccc(S(=O)(=O)NCc3ccc(S(N)(=O)=O)cc3)cc2)c1)N1CCNCC1 [Compound 52, 4-(3-(3-(imino(piperazin-1-yl)methyl)phenyl)ureido)-N-(4-sulfamoylbenzyl)benzenesulfonamide] | 20 to 200 nM | low (Cli between 10 and 60=low metabolism)
– | – | – | – | CN1CCN(C(=N)c2cccc(NC(=O)Nc3ccc(S(=O)(=O)NCc4ccc(S(N)(=O)=O)cc4)cc3)c2)CC1 [Compound 53, 4-(3-(3-(imino(4-methylpiperazin-1-yl)methyl)phenyl)ureido)-N-(4-sulfamoylbenzyl)benzenesulfonamide] | 210 to 990 nM | low (Cli between 10 and 60=low metabolism)
– | – | – | – | CC(C)N1CCN(C(=N)c2cccc(NC(=O)Nc3ccc(S(=O)(=O)NCc4ccc(S(N)(=O)=O)cc4)cc3)c2)CC1 [Compound 54, 4-(3-(3-(imino(4-isopropylpiperazin-1-yl)methyl)phenyl)ureido)-N-(4-sulfamoylbenzyl)benzenesulfonamide] | 20 to 200 nM | medium (Cli between 60 and 600=medium metabolism)
– | – | – | – | CCCCN1CCN(C(=N)c2cccc(NC(=O)Nc3ccc(S(=O)(=O)NCc4ccc(S(N)(=O)=O)cc4)cc3)c2)CC1=O [Compound 63, 4-(3-(3-((4-butyl-3-oxopiperazin-1-yl)(imino)methyl)phenyl)ureido)-N-(4-sulfamoylbenzyl)benzenesulfonamide] | < 20 nM | medium (Cli between 60 and 600=medium metabolism)
– | – | – | – | CN(C)C(=N)c1cccc(NC(=O)Nc2ccc(S(=O)(=O)NCc3ccc(S(N)(=O)=O)cc3)cc2)c1 [Compound 64, N,N-dimethyl-3-(3-(4-(N-(4-sulfamoylbenzyl)sulfamoyl)phenyl)ureido)benzimidamide] | 210 to 990 nM | low (Cli between 10 and 60=low metabolism)
– | – | – | – | N#CCCN1CCN(C(=N)c2cccc(NC(=O)Nc3ccc(S(=O)(=O)NCc4ccc(S(N)(=O)=O)cc4)cc3)c2)CC1 [Compound 65, 4-(3-(3-((4-(2-cyanoethyl)piperazin-1-yl)(imino)methyl)phenyl)ureido)-N-(4-sulfamoylbenzyl)benzene sulfonamide] | 210 to 990 nM | medium (Cli between 60 and 600=medium metabolism)
– | – | – | – | N=C(c1cccc(NC(=O)Nc2ccc(S(=O)(=O)NCc3ccc(S(N)(=O)=O)cc3)cc2)c1)N1CCN(CC2CC2)CC1 [Compound 66, 4-(3-(3-((4-(cyclopropylmethyl)piperazin-1-yl)(imino)methyl)phenyl)ureido)-N-(4-sulfamoylbenzyl)benzene sulfonamide] | < 20 nM | medium (Cli between 60 and 600=medium metabolism)
– | – | – | – | COCCN1CCN(C(=N)c2cccc(NC(=O)Nc3ccc(S(=O)(=O)NCc4ccc(S(N)(=O)=O)cc4)cc3)c2)CC1 [Compound 69, 4-(3-(3-(imino(4-(2-methoxyethyl)piperazin-1-yl)methyl)phenyl)ureido)-N-(4-sulfamoylbenzyl)benzene sulfonamide] | 20 to 200 nM | medium (Cli between 60 and 600=medium metabolism)
– | – | – | – | CCCCN1CCN(C(=N)c2cccc(NC(=O)Nc3ccc(S(=O)(=O)NCc4ccc(S(N)(=O)=O)s4)cc3)c2)CC1 [Compound 70, 5-((4-(3-(3-((4-butylpiperazin-1-yl)(imino)methyl)phenyl)ureido)phenylsulfonamido)methyl)thiophene-2-sulfonamide] | 20 to 200 nM | medium (Cli between 60 and 600=medium metabolism)
